Values of other authors, collected in PMC6669827 (Toxins, 2019).

Tested on: rat α9α10 nAChR
Conditions: cited from earlier work

Substance: Vc1.1
- affinity for rat versus human α9/α10 (in words): the affinity is higher for the rat subtypes
